The assay addresses T1, human recombinant mGluR5 (Homo sapiens, UniProt P41594).
T1 construct: expressed in transfected cells; host or cells: HEK 293 cell line cultured with tetracycline, hygromycin and geneticin; tetracycline removed 3-7 days before the assay
The assay can be described thus: positive modulation of mGluR5, calcium based FLIPR assay in HEK 293 cells. To be noted: HEK 293 cell line expressing human recombinant mGluR5; EC50 of the modulation of the glutamate response (glutamate approx. 5% basal stimulation); peak height of Ca release fluorescence signal. The protocol: The positive modulation of mGluR5 is measured in a HEK 293 cell line expressing human recombinant mGluR5 and is detected with calcium based FLIPR assay. The cells are cultured with DMEM supplemented with 10% FCS, 2 μg/mL tetracycline, 100 μg/mL hygromycin and 500 μg/mL gneticin. The cell culture media is exchanged for tetracycline-free cell culture media 3-7 days before the assay. One day before the assay the cell culture medium is exchanged to DMEM without glutamine and phenol red and supplemented with 10% FCS, 100 μg/mL hygromycin and 500 μg/mL geneticin. On the assay day, the medium of the subconfluent cultures is removed and the cells are detached by addition of 2.5 ml EDTA (0.02%) per 175 cm2 culture flask for 1 minute. The cells are resuspend in Ringer solution (140 mM NaCl, 5 mM KCl, 2.5 mM CaCl2, 1.5 mM MgCl2, 5 mM Glucose, 10 mM Hepes; adjusted to pH 7.4 with NaOH), pooled and Ringer solution added to adjust the volume to 50 mL. The cell suspension is centrifuged for […] at 1500 U/min (425 g). The supernatant is removed and the cells washed a second time with 50 ml fresh Ringer solution and centrifuged again as before. The supernatant is again removed and the pellet resuspended in Ringer solution to 1,000,000 cells/ml (1×10^6 cells/mL). The cells are plated onto BD BioCoat Poly-D-Lysine 384 well plates (20.000 cells/well; 20 μl/well). The lid covered plates are then incubated until use at 37° C./10% CO2. For dye loading, 20 μl of Calcium-4 assay kit solution (prepared according to the manufacturer's description in Ringer solution) are added to the cells and the plates are incubated for 80 min 37° C. and then 10 min at room temperature.
Controls, Compound Dilution and Assay Execution:
Each assay plate contained wells with “high” and “low” controls:
Low controls 1% DMSO/ringer solution+basal glutamate activation (defined as 100% CTL).
High controls 10 μM CDPPB+basal glutamate activation (defined as 200% CTL).
Test compounds are dissolved and diluted in DMSO to 100-fold the desired concentrations. In a second step, the compounds are diluted in Ringer solution such that the compounds are 4-fold more concentrated than the desired final assay concentration. The final DMSO concentration was 1%.
20 μl of each compound solution are then transferred to the assay plate and the Ca2+ kinetic is measured to determine any intrinsic compound activity. After 5 min incubation in the FLIPR device, the second stimulation with 20 μl of glutamate in Ringer solution (glutamate concentration adjusted to approximately 5% basal stimulation of the maximal possible glutamate effect) is added and the kinetic Ca2+ response of the wells was measured for the modulation effect.
The peak height of the Ca release related fluorescence signal (9-66) is used for the EC50. The EC50 of the modulation is calculated over a nonlinear regression with GraphPad Prism (Table 1).
T1 sequence (P41594 21-1212): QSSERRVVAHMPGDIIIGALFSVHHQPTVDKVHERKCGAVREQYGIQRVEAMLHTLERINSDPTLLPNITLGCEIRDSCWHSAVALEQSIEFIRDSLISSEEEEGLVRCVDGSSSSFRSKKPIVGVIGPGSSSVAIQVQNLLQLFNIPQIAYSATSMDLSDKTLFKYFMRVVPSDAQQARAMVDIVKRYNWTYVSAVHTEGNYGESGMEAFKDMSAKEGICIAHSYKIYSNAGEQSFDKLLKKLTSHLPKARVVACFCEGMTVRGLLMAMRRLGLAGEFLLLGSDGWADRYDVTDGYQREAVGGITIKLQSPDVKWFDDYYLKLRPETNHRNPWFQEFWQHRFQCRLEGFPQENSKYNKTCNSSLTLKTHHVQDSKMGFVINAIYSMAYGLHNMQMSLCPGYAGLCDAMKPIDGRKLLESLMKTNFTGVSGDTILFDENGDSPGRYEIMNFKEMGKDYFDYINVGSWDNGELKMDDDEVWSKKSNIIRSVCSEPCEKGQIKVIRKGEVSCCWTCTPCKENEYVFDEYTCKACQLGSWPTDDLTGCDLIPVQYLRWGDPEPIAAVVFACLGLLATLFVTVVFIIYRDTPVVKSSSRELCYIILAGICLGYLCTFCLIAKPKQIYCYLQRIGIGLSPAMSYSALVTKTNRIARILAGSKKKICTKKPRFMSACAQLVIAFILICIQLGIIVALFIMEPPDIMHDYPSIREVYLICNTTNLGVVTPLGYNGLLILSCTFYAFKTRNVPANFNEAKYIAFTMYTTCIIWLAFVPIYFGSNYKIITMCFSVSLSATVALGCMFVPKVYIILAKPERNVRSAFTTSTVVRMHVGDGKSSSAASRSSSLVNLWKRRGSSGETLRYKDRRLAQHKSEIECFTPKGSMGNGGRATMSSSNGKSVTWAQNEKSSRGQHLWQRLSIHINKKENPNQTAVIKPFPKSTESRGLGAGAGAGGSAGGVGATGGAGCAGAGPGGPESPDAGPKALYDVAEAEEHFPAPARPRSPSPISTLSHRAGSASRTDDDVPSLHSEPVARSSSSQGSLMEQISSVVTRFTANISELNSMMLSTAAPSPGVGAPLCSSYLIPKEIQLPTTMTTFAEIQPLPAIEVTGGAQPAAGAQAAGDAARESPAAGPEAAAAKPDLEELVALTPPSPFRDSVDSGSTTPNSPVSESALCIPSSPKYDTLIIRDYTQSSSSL
One may read the EC50 as the concentration at which the effect is half-maximal. Take `O=C(Cn1nc(-c2ccc(F)cc2)nc1-c1ccc(F)cc1)N1CCN(c2cc(Br)ccn2)CC1` [Example 07.01.03.]: the EC50 came out at 80 nM. To `Cc1cc(-c2nc(CCC(C)C)n(CC(=O)N3CCN(c4ncccn4)CC3)n2)ccc1F` [Example 07.04.122.] belongs 140 nM; to `Cc1ccnc(N2CCN(C(=O)Cn3nc(-c4ccc(F)c(C)c4)nc3C3CCCC(C)C3)CC2)c1` (centres unmarked) [Example 07.04.146.], 1340 nM. In the case of `N#Cc1ccnc(N2CCN(C(=O)Cn3nc(-c4ccc(F)cc4)nc3-c3ccc(F)cc3)CC2)n1` [Example 07.03.08.] it was 124 nM. Turning to `Cc1cc(-c2nc(-c3ccc(F)c(C)c3)n(CC(=O)N3CCN(c4ccccn4)CC3)n2)ccc1F` [Example 07.04.154.], the EC50 is 54 nM. In the case of `COc1ccc(-c2nc(C3CCCCC3)n(CC(=O)N3CCN(c4ccccn4)CC3)n2)cc1` [Example 07.02.25.] it was 424 nM; in that of `COc1ccc(-c2nc(-c3ccc(F)cc3)n(CC(=O)N3CCN(c4cc(C)ccn4)CC3)n2)cc1` [Example 07.04.032.], 39 nM.

On to `Nc1cc(N2CCN(C(=O)Cn3nc(-c4ccc(F)cc4)nc3-c3ccc(F)cc3)CC2)ncn1` [Example 07.03.28.], for which the EC50 is 319 nM.

Regarding `O=C(Cn1nc(-c2ccc(F)cc2)nc1-c1ccc(F)cc1)N1CCN(c2cc(OCCN3CCOCC3)ncn2)CC1` [Example 07.09.07.], the EC50 was 110 nM. On to `Cc1ccc(-c2nc(-c3ccccc3)n(CC(=O)N3CCN(c4ncccn4)CC3)n2)cc1C` [Example 07.10.15.], for which the EC50 is 24 nM. To `COc1ccc(-c2nc(-c3ccc(OC)cc3)n(CC(=O)N3CCN(c4ccccn4)CC3)n2)cc1` [Example 07.02.10.] belongs 83 nM. `Cc1ccnc(N2CCN(C(=O)Cn3nc(-c4ccc(F)c(C)c4)nc3C3CCCCC3C)CC2)c1` (centres unmarked) [Example 07.04.134.]: the EC50 amounted to 1030 nM. To `COc1cc(N2CCN(C(=O)Cn3nc(-c4ccc(F)c(F)c4)nc3-c3ccccc3)CC2)ncn1` [Example 07.10.33.] belongs 359 nM. In the case of `CCc1ccnc(N2CCN(C(=O)Cn3nc(-c4ccc(F)cc4)nc3-c3ccc(F)cc3)CC2)c1` [Example 07.05.02.] it was 43 nM; in that of `COc1cccc(-c2nc(C3CCCCC3)n(CC(=O)N3CCN(c4ncccn4)CC3)n2)c1` [Example 07.04.051.], 997 nM. In the case of `COc1ccnc(N2CCN(C(=O)Cn3nc(-c4ccc(F)cc4)nc3-c3ccc(F)cc3)CC2)n1` [Example 07.03.10.] it was 67 nM; in that of `O=C(Cn1nc(-c2ccc(F)cc2)nc1CCc1ccccc1)N1CCN(c2ncccn2)CC1` [Example 07.04.150.], 323 nM; in that of `Cc1cc(-c2nc(C3CCCCC3)n(CC(=O)N3CCN(c4ncc(Br)cn4)CC3)n2)ccc1F` [Example 07.04.070.], 318 nM. For `COc1ccc(-c2nc(-c3ccccc3)n(CC(=O)N3CCN(c4cc(OC)ncn4)CC3)n2)cc1` [Example 07.04.152.], the EC50 stood at 174 nM. Regarding `O=C(Cn1nc(-c2ccccc2)nc1-c1ccccc1)N1CCN(c2ncccn2)CC1` [Example 07.04.018.], the EC50 amounted to 200 nM.

For the compound `COc1ccc(-c2nc(-c3ccccc3)n(CC(=O)N3CCN(c4cccc(OC)n4)CC3)n2)cc1` [Example 07.04.159.], the EC50 came to 282 nM.

For the compound `COc1cccc(-c2nc(-c3ccc(F)cc3)n(CC(=O)N3CCN(c4ncccn4)CC3)n2)c1` [Example 07.04.028.], the EC50 was determined as 30 nM. To `CCOc1ccnc(N2CCN(C(=O)Cn3nc(-c4ccc(OC)cc4)nc3-c3ccccc3)CC2)c1` [Example 07.04.055.] belongs 101 nM; to `CCc1cccc(-c2nc(-c3ccccc3)n(CC(=O)N3CCN(c4ncccn4)CC3)n2)c1` [Example 07.10.03.], 15 nM. To `O=C(Cn1nc(-c2ccc(F)cc2)nc1-c1ccc(F)cc1)N1CCN(c2cc(NC3CC3)ncn2)CC1` [Example 07.08.04.] belongs 430 nM; to `COc1ccc(-c2nc(-c3ccc(F)cc3)n(CC(=O)N3CCN(c4ncc(Br)cn4)CC3)n2)cc1` [Example 07.04.036.], 32 nM; to `Cc1cc(-c2nc(-c3ccccc3)n(CC(=O)N3CCN(c4ncc(Cl)cn4)CC3)n2)ccc1F` [Example 07.04.058.], 25 nM. As to `O=C(Cn1nc(-c2ccc(F)cn2)nc1-c1ccc(F)cc1)N1CCN(c2ncccn2)CC1` [Example 07.04.140.], the EC50 amounted to 320 nM.

With `O=C(Cn1nc(-c2ccc(OC(F)F)cc2)nc1-c1ccccc1)N1CCN(c2ccccn2)CC1` [Example 7.04.164], the EC50 came to 22 nM. For `COc1cccc(-c2nc(-c3ccc(F)cc3)nn2CC(=O)N2CCN(c3ccccn3)CC2)c1` [Example 07.04.050.], the half-maximal effective concentration (EC50) was 459 nM. On to `O=C(Cn1nc(-c2ccc(F)cc2)nc1C1CCCC1)N1CCN(c2ncccn2)CC1` [Example 07.04.046.], for which the EC50 came to 586 nM.

Consider `COc1ccc(-c2nc(C3CCCCC3)n(CC(=O)N3CCN(c4ncccn4)CC3)n2)c(F)c1` [Example 07.04.020.], for which the EC50 worked out at 388 nM. To `Cc1cc(-c2nc(-c3ccccc3)n(CC(=O)N3CCN(c4ncccn4)CC3)n2)ccc1F` [Example 07.10.01., 2-(3-(4-fluoro-3-methyl-phenyl)-5-phenyl-(1,2,4)triazol-1-yl)-1-(4-pyrimidin-2-yl-piperazin-1-yl)-ethanone] belongs 11 nM. To `COc1ccc(-c2nc(-c3ccc(F)cc3)n(CC(=O)N3CCN(c4ncc(Cl)cn4)CC3)n2)cc1` [Example 07.04.038.] belongs 23 nM; to `COc1cc(-c2nc(-c3ccc(F)cc3)nn2CC(=O)N2CCN(c3ncccn3)CC2)ccc1F` [Example 07.04.077.], 244 nM; to `CCCc1nc(-c2ccc(F)c(C)c2)nn1CC(=O)N1CCN(c2cc(C)ccn2)CC1` [Example 07.04.082.], 306 nM. In the case of `O=C(Cn1nc(-c2ccc(F)cc2)nc1-c1ccc(F)cc1)N1CCN(c2ccnc(F)c2)CC1` [Example 07.01.05.] it was 399 nM; in that of `O=C(Cn1nc(-c2ccc(F)cc2)nc1-c1ccccc1)N1CCN(c2ncccn2)CC1` [Example 07.10.14.], 33 nM; in that of `Cc1cc(-c2nc(-c3ccccc3)nn2CC(=O)N2CCN(c3ccccn3)CC2)ccc1F` [Example 07.04.076.], 220 nM. Regarding `COc1cccc(-c2nc(-c3ccc(F)cc3)n(CC(=O)N3CCN(c4ccccn4)CC3)n2)c1` [Example 07.04.049.], the EC50 was 37 nM.

Turning to `COc1ccnc(N2CCN(C(=O)Cn3nc(-c4ccc(F)c(C)c4)nc3C3CCCC(C)C3)CC2)c1` (centres unmarked) [Example 07.04.148.], the EC50 amounted to 918 nM. `CCOc1cccc(-c2nc(-c3ccccc3)n(CC(=O)N3CCN(c4ncccn4)CC3)n2)c1` [Example 07.10.04.]: the EC50 was found to be 43 nM. Consider `Cc1cccc(-c2nc(-c3ccccc3)nn2CC(=O)N2CCN(c3ncccn3)CC2)c1` [Example 07.10.19.], for which the EC50 came out at 233 nM. Regarding `O=C(Cn1nc(-c2ccc(F)cc2)nc1-c1ccc(F)cc1)N1CCN(c2ccccn2)CC1` [Example 07.01.02.], the EC50 is 56 nM.

As for `COc1ccc(-c2nc(-c3ccc(OC)cc3)n(CC(=O)N3CCN(c4ccc(C(F)(F)F)cn4)CC3)n2)cc1` [Example 07.02.14.], the EC50 was 1050 nM.

Turning to `COc1ccnc(N2CCN(C(=O)Cn3nc(-c4ccc(F)c(C)c4)nc3C)CC2)c1` [Example 07.04.096.], the EC50 was found to be 1520 nM. To `CCC(C)c1nc(-c2ccc(F)c(C)c2)nn1CC(=O)N1CCN(c2cc(OC)ccn2)CC1` (centres unmarked) [Example 07.04.0100.] belongs 670 nM; to `Cc1cc(-c2nc(C)n(CC(=O)N3CCN(c4ncccn4)CC3)n2)ccc1F` [Example 07.04.097.], 1190 nM. In the case of `Cc1ccnc(N2CCN(C(=O)Cn3nc(-c4ccc(F)c(C)c4)nc3C)CC2)c1` [Example 07.04.098.] it was 738 nM; in that of `Cc1cc(-c2nc(C3CCCCC3C)n(CC(=O)N3CCN(c4ncccn4)CC3)n2)ccc1F` (centres unmarked) [Example 07.04.135.], 392 nM.

Values taken from patent US8889677B2, “Substituted triazoles useful as mGlu5 receptor modulators” (Boehringer Ingellheim International GmbH, priority 2012, dated 2014).
